Where “and” joins values, the source holds several entries; their conditions need not be identical. Equal values may be shown once. Read-outs that look alike come from different tables or passages of the source.
Legend:
17β-HSD2 = target: T1, 17β-HSD2 (Homo sapiens, UniProt P37059); assay: 17β-HSD Type II activity in MDA-MB-231 cells (E2→E1); type: cell-based; settings: MDA-MB-231 cells, E2→E1; for inhibition at 10 µM: read-out: % inhibition of 17β-HSD2 @ 10 μM
T1 construct: was measured in intact cell monolayers of T47D and MDA-MB-231 breast cancer cells respectively; endogenous in cells; host or cells: MDA-MB-231 human breast cancer cells
T1 sequence (P37059 1-387): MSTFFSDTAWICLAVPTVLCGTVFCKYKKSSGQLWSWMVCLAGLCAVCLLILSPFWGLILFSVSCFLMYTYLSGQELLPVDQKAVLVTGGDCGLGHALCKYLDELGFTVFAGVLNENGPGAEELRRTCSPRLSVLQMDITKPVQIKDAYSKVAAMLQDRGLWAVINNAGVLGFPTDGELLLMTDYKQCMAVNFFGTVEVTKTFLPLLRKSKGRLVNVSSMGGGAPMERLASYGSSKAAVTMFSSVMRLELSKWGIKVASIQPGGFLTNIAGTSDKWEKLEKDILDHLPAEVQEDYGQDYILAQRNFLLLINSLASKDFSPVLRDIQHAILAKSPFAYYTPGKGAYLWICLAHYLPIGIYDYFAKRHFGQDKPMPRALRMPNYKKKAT

17β-HSD1 = target: T2, 17β-HSD1 (Homo sapiens, UniProt P14061); assay: 17β-HSD Type I activity in T-47D cells (E1→E2); type: cell-based; settings: for inhibition at 10 µM: T47D, read-out: % inhibition of 17β-HSD1 @ 10 μM
T2 construct: was measured in intact cell monolayers of T47D and MDA-MB-231 breast cancer cells respectively; endogenous in cells; host or cells: T-47D human breast cancer cells
T2 sequence (P14061 1-328): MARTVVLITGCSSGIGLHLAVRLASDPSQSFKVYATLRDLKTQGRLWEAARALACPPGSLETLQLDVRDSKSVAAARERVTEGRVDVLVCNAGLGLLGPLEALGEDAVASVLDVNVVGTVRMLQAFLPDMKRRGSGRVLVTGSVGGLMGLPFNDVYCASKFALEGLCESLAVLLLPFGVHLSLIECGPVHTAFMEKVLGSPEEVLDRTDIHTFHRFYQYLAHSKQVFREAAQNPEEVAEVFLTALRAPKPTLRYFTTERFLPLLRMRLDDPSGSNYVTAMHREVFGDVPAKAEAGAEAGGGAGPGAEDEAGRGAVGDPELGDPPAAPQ

[1] = T-47D cells, E1→E2, read-out: IC50 (17β-HSD1)

Row | SMILES | inhibition at 10 µM (17β-HSD2) [%] | IC50 (17β-HSD2) [µM] | inhibition at 10 µM (17β-HSD1; T-47D cells, E1→E2) [%] | % inhibition of 17β-HSD1 @ 10 μM (17β-HSD1; T-47D cells, E1→E2) | IC50 (17β-HSD1; [1]) [µM] | IC50 (17β-HSD1) [µM]
1 | CN(C)c1ccc(/C=C2\CC3C4CCc5cc(O)ccc5C4CC[C@]3(C)[C@H]2O)cc1 (stereo in doubt) [compound 511, 16-(4-Dimethylamino-benzylidene)-13-methyl-7,8,9,11,12,13,14,15,16,17-decahydro-6H-cyclopenta[a]phenanthrene-3,17-diol] | 81 | 5.4 | 72 |  |  | 
2 | C[C@]12CCC3c4ccc(O)cc4CCC3C1CC(Cc1cccnc1)[C@@H]2O (stereo in doubt) [compound 542, 13-Methyl-16-pyridin-3-ylmethyl-7,8,9,11,12,13,14,15,16,17-decahydro-6H-cyclopenta[a]phenanthrene-3,17-diol] | 11 |  | 87 |  |  | 
3 | C[C@]12CCC3c4ccc(O)cc4CCC3C1CC(C#N)C2=O (stereo partly drawn) [compound 207] | 17 |  | 83 | 71% | 10 | 
4 | COc1cc2c(cc1O)CCC1C2CC[C@]2(C)C(=O)C(C#N)CC12 (stereo partly drawn) [compound 208] | 4 |  | 35 | 31% |  | 
5 | C[C@]12CCC3c4ccc(OS(N)(=O)=O)cc4CCC3C1CC(C#N)C2=O (stereo partly drawn) [compound 209] | 18 |  | 71 | 73% | 10 | 
6 | COc1cc2c(cc1OS(N)(=O)=O)CCC1C2CC[C@]2(C)C(=O)C(C#N)CC12 (stereo partly drawn) [compound 210] | 8 |  | 95 |  | 2.1 | 
7 | C[C@]12CCC3c4ccc(O)cc4CCC3C1C/C(=C\c1ccccc1)[C@@H]2O (stereo partly drawn) [compound 313] | 5 |  | 26 |  |  | 
8 | C[C@]12CCC3c4ccc(OS(N)(=O)=O)cc4CCC3C1C/C(=C\c1ccccc1)C2=O (stereo partly drawn) [compound 314] | 1 |  | -1 |  |  | 
9 | C[C@]12CCC3c4ccc(OS(N)(=O)=O)cc4CCC3C1C/C(=C\c1ccccc1)[C@@H]2O (stereo partly drawn) [compound 315] | 1 |  | 4 |  |  | 
10 | C[C@]12CCC3c4ccc(O)cc4CCC3C1C/C(=C\c1ccccn1)C2=O (stereo partly drawn) [compound 319] | 16 |  | 23 |  |  | 
11 | C[C@]12CCC3c4ccc(O)cc4CCC3C1C/C(=C\c1cccnc1)C2=O (stereo partly drawn) [compound 320] | 10 |  | 44 |  |  | 
12 | C[C@]12CCC3c4ccc(O)cc4CCC3C1C/C(=C\c1ccncc1)C2=O (stereo partly drawn) [compound 321] | 25 |  | 34 |  |  | 
13 | C[C@]12CCC3c4ccc(O)cc4CCC3C1C/C(=C\c1ccccn1)[C@@H]2O (stereo partly drawn) [compound 322] | 17 |  | 55 |  |  | 
14 | C[C@]12CCC3c4ccc(O)cc4CCC3C1C/C(=C\c1cccnc1)[C@@H]2O (stereo partly drawn) [compound 323] | 43 |  | 52 |  |  | 
15 | C[C@]12CCC3c4ccc(O)cc4CCC3C1C/C(=C\c1ccncc1)[C@@H]2O (stereo partly drawn) [compound 324] | 3 |  | 81 | 72% |  | 4.1
16 | C[C@]12CCC3c4ccc(O)cc4CCC3C1C/C(=N/O)C2=O (stereo partly drawn) [compound 327] | 5 |  | 96 | 94% | 1.1 | 
17 | COc1cc(/C=C2\CC3C4CCc5cc(O)ccc5C4CC[C@]3(C)C2=O)cc(OC)c1OC (stereo partly drawn) [compound 328] | -12 |  | 24 |  |  | 
18 | COc1cc(/C=C2\CC3C4CCc5cc(O)ccc5C4CC[C@]3(C)[C@H]2O)cc(OC)c1OC (stereo partly drawn) [compound 329] | 3 |  |  | 63% and 33% |  | 
19 | CCOC(=O)/C(O)=C1\CC2C3CCc4cc(O)ccc4C3CC[C@]2(C)C1=O (stereo partly drawn) [compound 330] | 7 |  | 72 | 77% |  | 

Row | SMILES | inhibition at 10 µM (17β-HSD2) [%] | IC50 (17β-HSD2) [µM] | inhibition at 10 µM (17β-HSD1; T-47D cells, E1→E2) [%] | % inhibition of 17β-HSD1 @ 10 μM (17β-HSD1; T-47D cells, E1→E2) | IC50 (17β-HSD1; [1]) [µM] | IC50 (17β-HSD1) [µM]
20 | C[C@]12CCC3c4ccc(OS(N)(=O)=O)cc4CCC3C1C/C(=N/O)C2=O (stereo partly drawn) [compound 337] | 8 |  | 47 |  |  | 
21 | C[C@]12CCC3c4ccc(O)cc4CCC3C1CC(=N/O)/C2=N\O (stereo partly drawn) [compound 338] | -2 |  | 55 |  |  | 
22 | C[C@]12CCC3c4ccc(O)cc4C(=O)CC3C1CCC2=O (stereo partly drawn) [compound 416] | 8 |  | 98 |  | 0.34 | 
23 | C[C@]12CCC3c4ccc(OS(N)(=O)=O)cc4CCC3C1C/C(=C\c1ccncc1)C2=O (stereo partly drawn) [compound 452] | 11 |  | 28 |  |  | 
24 | C[C@]12CCC3c4ccc(OS(N)(=O)=O)cc4CCC3C1C/C(=C\c1cccnc1)C2=O (stereo partly drawn) [compound 453] | 10 |  | 22 |  |  | 
25 | C[C@]12CCC3c4ccc(O)cc4/C(=N\O)CC3C1CC/C2=N\O (stereo partly drawn) [compound 454] | 27 |  |  |  | 1.9 | 
26 | C[C@]12CCC3c4ccc(O)cc4CCC3C1C/C(=C\c1ccco1)C2=O (stereo partly drawn) [compound 474] | 17 |  | 26 |  |  | 
27 | C[C@]12CCC3c4ccc(O)cc4CCC3C1C/C(=C\c1cccs1)C2=O (stereo partly drawn) [compound 475] | 14 |  | 67 |  |  | 
28 | CN(C)c1ccc(/C=C2\CC3C4CCc5cc(O)ccc5C4CC[C@]3(C)C2=O)cc1 (stereo partly drawn) [compound 477, 16-(4-Dimethylamino-benzylidene)-3-hydroxy-13-methyl-6,7,8,9,11,12,13,14,15,16-decahydro-cyclopenta[a]phenanthron-17-one] | 13 |  | 72 |  |  | 
29 | C[C@]12CCC3c4ccc(O)cc4CCC3C1C/C(=C\c1ccc(C#N)cc1)C2=O (stereo partly drawn) [compound 478] | 18 |  | 39 |  |  | 
30 | C[C@]12CCC3c4ccc(O)cc4CCC3C1C/C(=C/O)C2=O (stereo partly drawn) [compound 486] | 15 |  | 97 |  | 0.11 | 
31 | C[C@]12CCC3c4ccc(O)cc4CCC3C1C/C(=C\c1cccs1)[C@@H]2O (stereo partly drawn) [compound 507] | 25 |  | 41 |  |  | 
32 | C[C@]12CCC3c4ccc(O)cc4CCC3C1C/C(=C\c1ccc(C#N)cc1)[C@@H]2O (stereo partly drawn) [compound 510] | 31 |  | 57 |  |  | 
33 | CO/N=C1\CC2C(CC[C@]3(C)/C(=N/OC)CCC23)c2ccc(O)cc21 (stereo partly drawn) [compound 515] | 31 |  | 15 |  |  | 
34 | C[C@]12CCC3c4ccc(O)cc4CCC3C1CC(Cc1ccncc1)[C@@H]2O (stereo partly drawn) [compound 543, 13-Methyl-16-pyridin-4-ylmethyl-7,8,9,11,12,13,14,15,16,17-decahydro-6H-cyclopenta[a]phenanthrene-3,17-diol] | 37 |  | 84 |  |  | 
35 | C[C@]12CCC3c4ccc(O)cc4CCC3C1CC(C#N)[C@@H]2O (stereo partly drawn) [compound 561] | 4 |  | 56 |  |  | 
36 | C[C@]12CCC3c4ccc(O)cc4CCC3C1CC(Cc1ccccn1)[C@@H]2O (stereo partly drawn) [compound 567, 13-Methyl-16-pyridin-2-ylmethyl-7,8,9,11,12,13,14,15,16,17-decahydro-6H-cyclopenta[□]phenanthrene-3-17-diol] | 11 |  | 88 |  |  | 
37 | COC(=O)C1CC2C3CCc4cc(O)ccc4C3CC[C@]2(C)C1=O (stereo partly drawn) [compound 568] | 9 |  | 69 |  |  | 
38 | CC(C)/C=C1\CC2C3CCc4cc(O)ccc4C3CC[C@]2(C)C1=O (stereo partly drawn) [compound 571] | 18 |  | 71 |  |  | 

From US8003783B2, “17B-hydroxysteroid dehydrogenase inhibitors” (Sterix Limited, priority 2004, dated 2011)
